Experimental findings from ChEMBL document CHEMBL1158463 (J Med Chem, 2009) are described below.

The data set has as its system Canis familiaris. The experiment in a line: Toxicity in dog assessed as change in cardiovascular variables up to 5 mg/kg by telemetry study. The arrangement: dose 5 mg/kg. Format: organism-based, Canis lupus familiaris, Heart. The following applies: in vivo.
For the compound `CCc1ccc(OCc2ccccc2C(=O)Nc2ccc3nc(C)cc(N)c3c2)cc1`, the Activity result is on record as “Non-toxic”.
For `O=C(NCCCN1CCC2(CC1)OCc1ccccc12)[C@H]1CCCN1Cc1ccccc1`, the Activity entry is “Non-toxic”.
Under `O[C@H]1C[C@H](CN2CC[C@H](c3ccc(F)cc3Cl)[C@@H](O)C2)Cc2cccnc21` stands “Non-toxic”; under `COC(=O)C1Cc2ccccc2N1C(=O)CCN1CCC2(CCc3ccccc32)CC1` (stereo not drawn), “Non-toxic”.
Under `CCN1CCN(c2cc3[nH]c(C(=O)[C@]4(C)CC[C@](C)(O)CC4)nc3cc2C)CC1` stands “Non-toxic”; under `CN1CC(C(=O)NCCCN2CCC3(CCc4ccccc43)CC2)CC1=O` (stereo not drawn), “Non-toxic”; under `Cc1cccc2c1CC[C@H](CN1CCC(c3c(Cl)cccc3Cl)CC1)C[C@@H]2O`, “Non-toxic”.
Under `Cc1ccc2nc(NC(=O)c3ccc(Cl)cc3)nc(N[C@H]3CCCC[C@H]3NC(=N)N)c2c1` stands “Non-toxic”.
